Source: US20190015505A1, “Method of Mediating Cardiovascular Hypertrophy and Perivascular Fibrosis Induced by Angiotensin II” (UNIVERSITY OF MACAU, priority 2017, published 2019)

Experiments:
[1] = tested on: VSMCs stimulated with AngII; assay: Pro-fibrotic response: extracellular collagen content (Sirius Red kit) in VSMCs stimulated with AngII; assay type: cell-based; details: rat VSMCs, 100 nM AngII 48 hours; JG26 1 ̂mol/L, erlotinib 1 ̂mol/L, PBA 10 mmol/L pretreated 30 min; adenovirus 100 m.o.i.
Description: (§1) VSMCs were prepared from thoracic aortas of male Sprague-Dawley rats by the explant method as described previously^21. VSMCs were subcultured in DMEM containing 10% fetal bovine serum, penicillin and streptomycin. Cells from passage 3 to 10 at 80˜90% confluence were made quiescent by incubation with serum-free medium for 2-3 days.
To evaluate pro-fibrotic response, serum-starved VSMCs were stimulated with 100 nM AngII for 48 hours and extracellular cellular collagen content was quantified by Sirius Red collagen quantification kit (Chondrex) according to the manufacture's protocol. Recombinant adenoviral vector encoding rat ADAM17 siRNA was created and specificity and efficiency has been reported^11. VSMCs were infected with 100 m.o.i. adenovirus prior to the AngII stimulation as reported previously^11. ADAM17 selective inhibitor compound #21 (JG26)^8 was generated as reported. VSMCs were pretreated
with 1 ̂mol/L JG26 or vehicle (0.1% DMSO in final) for 30 min prior to the AngII stimulation. 4-phenylbutyrate (PBA) was obtained from Scandinavian Formulas and solubilized in DMEM. VSMCs were pretreated with 10 mmol/L PBA for 30 min.
Erlotinib (OSI Pharmaceuticals) was obtained from Genentech. VSMCs were pretreated with 1 ̂mol/L erlotinib for 30 min.
To test for the role of ADAM17 in AngII-induced vascular fibrosis, extracellular collagen content was evaluated in VSMCs stimulated with AngII. Adenovirus encoding ADAM17 siRNA^11 attenuated the AngII-induced enhancement in collagen content (FIG. 4A and 4B). Treatment of VSMCs with ADAM17 antibody A9B8, a highly-selective ADAM17 inhibitor JG26/compound 21^22, an EGFR kinase inhibitor erlotinib or a chemical ER chaperone PBA also attenuated AngII-induced enhancement in collagen content (FIG. 4C). As shown with the ADAM17 siRNA^11, A9B8 as well as JG26 inhibited AngII-induced EGFR transactivation assessed with an auto-phosphorylation site antibody (FIG. 4D).

[2] = tested on: EGFR; assay: AngII-induced EGFR transactivation in VSMCs, immunoblotting with auto-phosphorylation site antibody; assay type: cell-based; details: rat VSMCs, 100 nM AngII, auto-phosphorylation site antibody (Tyr1068)
Description: as §1
Immunoblotting (IB) was performed as previously described^21. Quiescent VSMCs grown on 6-well plates were stimulated with 100 nM AngII (Sigma) for specified durations. The reaction was terminated by the replacement of medium with 100 ̂L of 1xSDS lysis buffer. 40 ̂L of the cell lysates were subjected to SDS-PAGE gel electrophoresis and electrophoretically transferred to a nitrocellulose membrane. The membranes were then exposed to primary antibodies overnight at 4° C. After incubation with the peroxidase linked secondary antibody for 1 h at room temperature, immunoreactive proteins were visualized using a chemiluminescence reaction kit. […]
To test for the role of ADAM17 in AngII-induced vascular fibrosis, extracellular collagen content was evaluated in VSMCs stimulated with AngII. […] As shown with the ADAM17 siRNA^11, A9B8 as well as JG26 inhibited AngII-induced EGFR transactivation assessed with an auto-phosphorylation site antibody (FIG. 4D).

Compound	AngII-induced enhancement in collagen content [1]	AngII-induced EGFR transactivation [2]
NC(=O)NCCC[C@@H](NS(=O)(=O)c1ccc(OCc2cc(Br)cc(Br)c2)cc1)C(=O)NO [JG26, reference compound]	attenuated	inhibited
C#Cc1cccc(Nc2ncnc3cc(OCCOC)c(OCCOC)cc23)c1 [erlotinib, Erlotinib]	attenuated	–
4-phenylbutyrate [PBA]	attenuated	–
